The assay relates to Male SHRs. The assay can be described thus: Antihypertensive effect: mean blood pressure in male SHRs after oral administration. It is filed as in vivo, rat. The note with it: male SHR, dose 3 mg/kg, MBP measured during 24 hours. The protocol:
Male SHRs (28-40 weeks old, Japan SLC, Inc., Japan) were anesthetized with sodium pentobarbital (50 mg/kg, i.p.). The left femoral artery was cannulated with a polyethylene catheter filled with saline comprising heparin (200 U/mL). The catheter was exteriorized at the back of the neck and each SHR was individually housed in a cage and left two or four days to recover. The mean blood pressure (MBP) was obtained from the systemic blood pressure which was monitored from the femoral artery using a pressure transducer connected to a polygraph system (Nihon Kohden Corporation). The heart rate was measured from the blood pressure pulse intervals. The rats which had MBP over 150 mmHg were used for the experiment. When the blood pressure had stabilized, vehicle (0.5 w/v % methylcellulose) or compounds were orally administered. All compounds were suspended in 0.5 w/v % methylcellulose and orally administered at a volume of 2 mL/kg. The MBP was measured during 24 hours after the administration.

Structures can show the parent of a compound that is named as a salt.

In the case of “(−)-6-{[3-fluoro-2′-(5-oxo-4,5-dihydro-1,2,4-oxadiazol-3-yl)biphenyl-4-yl]methyl}-4-[trans-4-(2-hydroxy-1,2-dimethylpropoxy)cyclohexyl]-7-propyl[1,2,4]triazolo[1,5-a]pyrimidin-5(4H)-one potassium salt (retention time: long) [Example 459]”, the “Maximum MBP reduction (mmHg)” value is on record as 64 mmHg.

Take `CCCc1c(Cc2ccc(-c3ccccc3-c3noc(=O)[nH]3)cc2)c(=O)n([C@H]2CC[C@H](OCC(C)(C)O)CC2)c2ccnn12` [Example 415, 4-[trans-4-(2-hydroxy-2-methylpropoxy)cyclohexyl]-6-{[2′-(5-oxo-4,5-dihydro-1,2,4-oxadiazol-3-yl)biphenyl-4-yl]methyl}-7-propylpyrazolo[1,5-a]pyrimidin-5(4H)-one potassium salt]: the “Maximum MBP reduction (mmHg)” value was determined as 63 mmHg.

The values above are taken from patent publication US8283353B2, “Fused ring compound and use thereof” (Takeda Pharmaceutical Company Limited, priority 2009, dated 2012).
